The first assay deals with T1, human full-length HSP90 (Homo sapiens, UniProt P08238).
T1 construct: E. coli expressed human full-length HSP90 protein; made in house; host or cells: E. coli
T1 sequence (P08238 whole entry): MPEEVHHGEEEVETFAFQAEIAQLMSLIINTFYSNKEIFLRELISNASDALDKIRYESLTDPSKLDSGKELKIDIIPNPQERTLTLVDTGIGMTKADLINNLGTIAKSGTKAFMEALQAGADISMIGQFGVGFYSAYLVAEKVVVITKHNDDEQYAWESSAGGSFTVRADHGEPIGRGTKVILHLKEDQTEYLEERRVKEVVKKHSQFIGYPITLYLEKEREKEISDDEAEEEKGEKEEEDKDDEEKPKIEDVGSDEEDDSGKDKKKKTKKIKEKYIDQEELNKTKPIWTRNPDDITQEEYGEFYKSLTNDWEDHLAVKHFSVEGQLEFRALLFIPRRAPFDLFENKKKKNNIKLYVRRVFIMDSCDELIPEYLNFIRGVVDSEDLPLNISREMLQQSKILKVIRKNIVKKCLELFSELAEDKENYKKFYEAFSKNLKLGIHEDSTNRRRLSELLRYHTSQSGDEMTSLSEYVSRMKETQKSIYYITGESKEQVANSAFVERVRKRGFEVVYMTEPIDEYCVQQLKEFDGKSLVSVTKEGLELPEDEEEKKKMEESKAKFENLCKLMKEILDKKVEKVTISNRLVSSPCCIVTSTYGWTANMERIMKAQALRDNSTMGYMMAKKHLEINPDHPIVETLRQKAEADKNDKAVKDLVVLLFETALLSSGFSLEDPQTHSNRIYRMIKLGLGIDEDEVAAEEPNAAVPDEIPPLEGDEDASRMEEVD
Briefly: Fluorescence polarization assay (competitive displacement of fluorescein-labelled probe from HSP90). The assay is classed as binding. The note with it: human full-length HSP90 200 nM, probe 80 nM; read-out: FP IC50 (activity in the fluorescence polarization assay). An excerpt: Fluorescence Polarization Assay
Fluorescence polarization {also known as fluorescence anisotropy} measures the rotation of a fluorescing species in solution, where the larger molecule the more polarized the fluorescence emission. When the fluorophore is excited with polarized light, the emitted light is also polarized. The molecular size is proportional to the polarization of the fluorescence emission.
The fluoroscein-labelled probe—
binds to HSP90 {full-length human, full-length yeast or N-terminal domain HSP90} and the anisotropy {rotation of the probe:protein complex} is measured.
Test compound is added to the assay plate, left to equilibrate and the anisotropy measured again. Any change in anisotropy is due to competitive binding of compound to HSP90, thereby releasing probe.
Chemicals are of the highest purity commercially available and all aqueous solutions are made up in AR water. • 1) Costar 96-well black assay plate #3915 • 2) Assay buffer of (a)100 mM Tris pH7.4; (b) 20 mM KCl; (c) 6 mM MgCl2. Stored at room temperature. • 3) BSA (bovine serum albumen) 10 mg/ml (New England Biolabs # B9001S) • 4) 20 mM probe in 100% DMSO stock concentration. Stored in the dark at RT. Working concentration is 200 nM diluted in AR water and stored at 4° C. Final concentration in assay 80 nM. • 5) E. coli expressed human full-length HSP90 protein, purified >95% (see, e.g., Panaretou et al., 1998) and stored in 50 μL aliquots at −80° C.
Protocol • 1) Add 100 μl 1× buffer to wells 11A and 12A (=FP BLNK) • 2) Prepare assay mix—all reagents are kept on ice with a lid on the bucket as the probe is light-sensitive.
• 3) Aliquot 100 μl assay mix to all other wells • 4) Seal plate and leave in dark at room temp for 20 minutes to equilibrate
Compound Dilution Plate—1×3 dilution series • 1) In a clear 96-well v-bottom plate—{# VWR 007/008/257} add 10 μl 100% DMSO to wells B1 to H11 • 2) To wells A1 to A11 add 17.5 μl 100% DMSO • 3) Add 2.5 μl cpd to A1. This gives 2.5 mM {50×} stock cpd—assuming cpds 20 mM. • 4) Repeat for wells A2 to A10. Control in columns 11 and 12. • 5) Transfer 5 μl from row A to row B—not column 12. Mix well. • 6) Transfer 5 μl from row B to row C. […] In column 11 {provides standard curve} only add compound B11-H11. Add 2 μl of 100 mM standard cpd to wells B12-H12 {is positive control} • 13) The Z′ factor is calculated from zero controls and positive wells. It typically gives a value of 0.7-0.9.
Take `Cc1ccc(-c2ccnc3[nH]cc(C#N)c23)c(C)c1` [Example 1, 4-(2,4-Dimethyl-phenyl)-1H-pyrrolo[2,3-b]pyridine-3-carbonitrile]: the half-maximal inhibitory concentration (IC50) is less than 1000 nM.

On to `N#Cc1c[nH]c2nccc(-c3ccc(Cl)cc3Cl)c12` [Example 2, 4-(2,4-Dichloro-phenyl)-1H-pyrrolo[2,3-b]pyridine-3-carbonitrile], for which the IC50 was less than 1000 nM.

For the compound `N#Cc1c[nH]c2nc(Cl)cc(-c3ccc(Cl)cc3Cl)c12` [Example 3, 6-Chloro-4-(2,4-dichloro-phenyl)-1H-pyrrolo[2,3-b]pyridine-3-carbonitrile], the IC50 is less than 1000 nM.

As to `COc1cc(-c2ccnc3[nH]cc(C#N)c23)c(Cl)cc1Cl` [Example 4, 4-(2,4-Dichloro-5-methoxy-phenyl)-1H-pyrrolo[2,3-b]pyridine-3-carbonitrile], the IC50 was less than 1000 nM.

On to `COc1cc(-c2cc(Cl)nc3[nH]cc(C#N)c23)c(Cl)cc1Cl` [Example 5, 6-Chloro-4-(2,4-dichloro-5-methoxy-phenyl)-1H-pyrrolo[2,3-b]pyridine-3-carbonitrile], for which the IC50 was less than 1000 nM.

`Cc1ccc(-c2ccnc3[nH]cc(Br)c23)c(C)c1` [Example 6]: the IC50 fell in the range of 1000 to 10000 nM.

As to `Cc1ccc(-c2ccnc3[nH]cc(C=O)c23)c(C)c1` [Example 7, 4-(2,4-Dimethyl-phenyl)-1H-pyrrolo[2,3-b]pyridine-3-carbaldehyde], the IC50 was less than 1000 nM.

For the compound `CCN(CC)CCOc1cc(-c2ccccc2)c2c(C#N)c[nH]c2n1` [Example 9, 6-(2-Diethylamino-ethoxy)-4-phenyl-1H-pyrrolo[2,3-b]pyridine-3-carbonitrile], the 50% inhibitory concentration (IC50) is more than 10000 nM.

As for `CCN(CC)CCOc1cc(-c2ccc(Cl)cc2Cl)c2c(C#N)c[nH]c2n1` [Example 10, 4-(2,4-Dichloro-phenyl)-6-(2-diethylamino-ethoxy)-1H-pyrrolo[2,3-b]pyridine-3-carbonitrile], the concentration for half-maximal inhibition (IC50) lay in the range of 1000 to 10000 nM.

For `N#Cc1c[nH]c2nc(OCCCN3CCCCC3)cc(-c3ccc(Cl)cc3Cl)c12` [Example 11, 4-(2,4-Dichloro-phenyl)-6-(3-piperidin-1-yl-propoxy)-1H-pyrrolo[2,3-b]pyridine-3-carbonitrile], the IC50 fell in the range of 1000 to 10000 nM.

For `N#Cc1c[nH]c2nccc(-c3cccc(O)c3)c12` [Example 12, 4-(3-Hydroxy-phenyl)-1H-pyrrolo[2,3-b]pyridine-3-carbonitrile], the IC50 fell in the range of 1000 to 10000 nM.

As to `CCN(CC)CCOc1cccc(-c2ccnc3[nH]cc(C#N)c23)c1` [Example 13, 4-[3-(2-Diethylamino-ethoxy)-phenyl]-1H-pyrrolo[2,3-b]pyridine-3-carbonitrile], the IC50 lay in the range of 1000 to 10000 nM.

With `N#Cc1c[nH]c2nc(Cl)cc(-c3cccc(O)c3)c12` [Example 14, 6-Chloro-4-(3-hydroxy-phenyl)-1H-pyrrolo[2,3-b]pyridine-3-carbonitrile], the IC50 was less than 1000 nM.

As to `COc1cc(-c2ccccc2)c2c(C#N)c[nH]c2n1` [Example 15, 6-methoxy-4-(-phenyl)-1H-pyrrolo[2,3-b]pyridine-3-carbonitrile], the IC50 was less than 1000 nM.

Tested on in another assay: not listed separately
Briefly: Growth inhibition assay: cytotoxicity by sulforhodamine B (SRB) assay. The assay is classed as cell-based. The note with it: SRB stain, absorbance at 540 nm; cell line not named. On the procedure:
A growth inhibition assay was also employed for the evaluation of candidate HSP90 inhibitors:
Assessment of Cytotoxicity by Sulforhodamine B (SRB) Assay: Calculation of 50% Inhibitory Concentration (IC50).
Day 1 • 1) Determine cell number by haemocytometer. • 2) Using an 8 channel multipipettor, add 160 μl of the cell suspension (3600 cells/well or 2×10^4 cells/ml) to each well of a 96-well microtitre plate. • 3) Incubate overnight at 37° C. in a CO2 incubator. […]
Day 6 • 8) Tip off medium into sink and immerse plate slowly into 10% ice cold trichloroacetic acid (TCA). […] Leave for 15 mins. • 12) Wash off unbound SRB stain with four washes of 1% acetic acid. • 13) Dry plates in incubator. • 14) Solubilise SRB using 100 μl of 10 mM Tris base and put plates on plate shaker for 5 mins. • 15) Determine absorbance at 540 nm using a plate reader. Calculate mean absorbance for quadruplicate wells and express as a percentage of value for control, untreated wells. • 16) Plot % absorbance values versus log drug concentration and determine the IC50.
A general note: In SRB staining, fixed cells bind dye roughly in proportion to their protein.
Regarding `COc1cc(-c2cc(Cl)nc3[nH]cc(C#N)c23)c(Cl)cc1Cl` [Example 5, 6-Chloro-4-(2,4-dichloro-5-methoxy-phenyl)-1H-pyrrolo[2,3-b]pyridine-3-carbonitrile], the IC50 is less than 50000 nM.

What is called IC50 is the midpoint of a concentration-inhibition curve.

Values taken from patent US20100010037A1, “1H-PYRROLO[2,3-B]PYRIDINE DERIVATIVES USEFUL AS HSP90 INHIBITORS” (VERNALIS (R&D) LTD., priority 2006, published 2010).
